Measured values: US20160333419A1, “GENE SIGNATURES ASSOCIATED WITH SENSITIVITY TO MDM2 INHIBITORS” (DAIICHI SANKYO COMPANY, LIMITED, priority 2014, published 2016)

Tests used:
Test in all cases: OncoPanel cytotoxicity assay
Type in all cases: cell-based
5637 = conditions: Homo sapiens, 72 hour incubation
Experimental: (§1) Cells were grown in RPMI 1640, 10% FBS, 2 mM L-alanyl-L-Glutamine, 1 mM Na Pyruvate, or a special medium in a humidified atmosphere of 5% CO2 at 37° C. Cells were seeded into 384-well plates and incubated in a humidified atmosphere of 5% CO2 at 37° C. Test compounds were added 24 hours post cell seeding. At the same time, a time zero, untreated cell plate was generated as a control. After a 72 hour incubation period, cells were fixed and stained with nuclear dye to allow visualization of nuclei.
(§2) Compounds were serially diluted 3.16-fold and assayed over 10 concentrations of inhibitor in a final assay concentration of 0.1% DMSO from the highest test concentration specified in the sample information chapter. Automated fluorescence microscopy was carried out using a GE Healthcare InCell Analyzer 1000, and images were collected with a 4× objective. Twelve bit tiff images were acquired using the InCell Analyzer 1000 3.2 and analyzed with Developer Toolbox 1.6 software.
(§3) Cell proliferation was measured by the signal intensity of the incorporated nuclear dye. The cell proliferation assay output is referred to as the relative cell count. To determine the cell proliferation end point, the cell proliferation data output is transformed to percent of control (POC) using the following formula: […]
(§4) Relative cell count IC50 (IC50) is the test compound's concentration that produces 50% of the cell proliferation inhibitory response or 50% cytotoxicity level. IC50 values were calculated using nonlinear regression to fit data to a sigmoidal 4 point, 4 parameter One-Site dose response model, where: y (fit)=A+[(B−A)/(1+((C/x)̂D))]. Curve-fitting, IC50 calculations and report generation were performed using a custom data reduction engine MathIQ based software (AIM). […] In these cases, the IC50 values were expressed as 40 μM and 10 μM, respectively (Table 2).

786-O = conditions: Homo sapiens, 786-0, 72 hour incubation
Experimental: as §1, §2, §3, §4

A172 = conditions: Homo sapiens, A 172, 72 hour incubation
Experimental: as §1, §2, §3, §4

A204 = conditions: Homo sapiens, 72 hour incubation
Experimental: as §1, §2, §3, §4

AN3 CA = conditions: Homo sapiens, 72 hour incubation
Experimental: as §1, §2, §3, §4

AU565 = conditions: Homo sapiens, 72 hour incubation
Experimental: as §1, §2, §3, §4

BM-1604 = conditions: Homo sapiens, 72 hour incubation
Experimental: as §1, §2, §3, §4

C-4 I = conditions: Homo sapiens, 72 hour incubation
Experimental: as §1, §2, §3, §4

CCRFCEM = conditions: Homo sapiens, CCRF-CEM, 72 hour incubation
Experimental: as §1, §2, §3, §4

CFPAC-1 = conditions: Homo sapiens, 72 hour incubation
Experimental: as §1, §2, §3, §4

Cal 27 = conditions: Homo sapiens, 72 hour incubation
Experimental: as §1, §2, §3, §4

Colo 201 = conditions: Homo sapiens, 72 hour incubation
Experimental: as §1, §2, §3, §4

DMS53 = conditions: Homo sapiens, DMS-53, 72 hour incubation
Experimental: as §1, §2, §3, §4

DU145 = conditions: Homo sapiens, DU-145, 72 hour incubation
Experimental: as §1, §2, §3, §4

G-401 = conditions: Homo sapiens, 72 hour incubation
Experimental: as §1, §2, §3, §4

H4 = conditions: Homo sapiens, 72 hour incubation
Experimental: as §1, §2, §3, §4

HEL-92-1-7 = conditions: Homo sapiens, HEL 92.1.7, 72 hour incubation
Experimental: as §1, §2, §3, §4

J82 = conditions: Homo sapiens, 72 hour incubation
Experimental: as §1, §2, §3, §4

K562 = conditions: Homo sapiens, 72 hour incubation
Experimental: as §1, §2, §3, §4

L-428 = conditions: Homo sapiens, 72 hour incubation
Experimental: as §1, §2, §3, §4

MDA-MB-436 = conditions: Homo sapiens, 72 hour incubation
Experimental: as §1, §2, §3, §4

NCI-H460 = conditions: Homo sapiens, 72 hour incubation
Experimental: as §1, §2, §3, §4

NCI-H508 = conditions: Homo sapiens, 72 hour incubation
Experimental: as §1, §2, §3, §4

NCI-H661 = conditions: Homo sapiens, 72 hour incubation
Experimental: as §1, §2, §3, §4

NCI-H747 = conditions: Homo sapiens, 72 hour incubation
Experimental: as §1, §2, §3, §4

RPMI 8226 = conditions: Homo sapiens, 72 hour incubation
Experimental: as §1, §2, §3, §4

RPMI-7951 = conditions: Homo sapiens, 72 hour incubation
Experimental: as §1, §2, §3, §4

SCaBER = conditions: Homo sapiens, 72 hour incubation
Experimental: as §1, §2, §3, §4

SK-LMS-1 = conditions: Homo sapiens, 72 hour incubation
Experimental: as §1, §2, §3, §4

SK-MEL-28 = conditions: Homo sapiens, 72 hour incubation
Experimental: as §1, §2, §3, §4

SK-MEL-3 = conditions: Homo sapiens, SK-MEL3, 72 hour incubation
Experimental: as §1, §2, §3, §4

SK-N-DZ = conditions: Homo sapiens, 72 hour incubation
Experimental: as §1, §2, §3, §4

SNB-19 = conditions: Homo sapiens, 72 hour incubation
Experimental: as §1, §2, §3, §4

SU.86.86 = conditions: Homo sapiens, 72 hour incubation
Experimental: as §1, §2, §3, §4

SW480 = conditions: Homo sapiens, 72 hour incubation
Experimental: as §1, §2, §3, §4

SW872 = conditions: Homo sapiens, 72 hour incubation
Experimental: as §1, §2, §3, §4

SW982 = conditions: Homo sapiens, 72 hour incubation
Experimental: as §1, §2, §3, §4

U-87 MG = conditions: Homo sapiens, 72 hour incubation
Experimental: as §1, §2, §3, §4

U2OS = conditions: Homo sapiens, 72 hour incubation
Experimental: as §1, §2, §3, §4

SMILES	IC50 5637 [µM]	IC50 (786-O) [µM]	IC50 (A172) [µM]	IC50 (A204) [µM]	IC50 (AN3 CA) [µM]	IC50 (AU565) [µM]	IC50 (BM-1604) [µM]	IC50 (C-4 I) [µM]	IC50 (CCRFCEM) [µM]	IC50 (CFPAC-1) [µM]	IC50 (Cal 27) [µM]	IC50 (Colo 201) [µM]	IC50 (DMS53) [µM]	IC50 (DU145) [µM]	IC50 (G-401) [µM]	IC50 (H4) [µM]	IC50 (HEL-92-1-7) [µM]	IC50 (J82) [µM]	IC50 (K562) [µM]	IC50 (L-428) [µM]	further results
CC[C@@H]1CNC2(CC2)CN1C(=O)[C@@H]1C[C@@H](F)CN1C(=O)C1=C(C(C)C)N2C(=N[C@@](C)(c3ccc(Cl)nc3)[C@H]2c2ccc(Cl)c(F)c2)S1 [Compound A, [(5R,6S)-5-(4-Chloro-3-fluorophenyl)-6-(6-chloropyridin-3-yl)-6-methyl-3-(propan-2-yl)-5,6-dihydroimidazo[2,1-b][1,3]thiazol-2-yl][(2S,4R)-2-{[(6R)-6-ethyl-4,7-diazaspiro[2.5]oct-7-yl]carbonyl}-4-fluoropyrrolidin-1-yl]methanone]	> 40	37.3	0.795	0.755	> 40	23.7	> 40	> 40	> 40	> 40	> 40	34.6	38.4	> 40	0.242	0.172	> 40	> 40	> 40	> 40	IC50 (MDA-MB-436): > 40 µM; IC50 (NCI-H460): 0.515 µM; IC50 (NCI-H508): > 40 µM; IC50 (NCI-H661): > 40 µM; IC50 (NCI-H747): > 40 µM; IC50 (RPMI 8226): > 40 µM; IC50 (RPMI-7951): > 40 µM; IC50 (SCaBER): > 40 µM; IC50 (SK-LMS-1): > 40 µM; IC50 (SK-MEL-28): > 40 µM; IC50 (SK-MEL-3): > 40 µM; IC50 (SK-N-DZ): > 40 µM; IC50 (SNB-19): > 40 µM; IC50 (SU.86.86): > 40 µM; IC50 (SW480): > 40 µM; IC50 (SW872): > 40 µM; IC50 (SW982): 0.232 µM; IC50 (U-87 MG): 0.261 µM; IC50 (U2OS): 1.24 µM
CC1(C)CCC2(CC1)N[C@@H](C(=O)N[C@@H]1CC[C@@H](C(N)=O)OC1)[C@H](c1ccnc(Cl)c1F)[C@]21C(=O)Nc2cc(Cl)ccc21 [Compound B, (3′R,4′S,5′R)—N-[(3R,6S)-6-carbamoyltetrahydro-2H-pyran-3-yl]-6″-chloro-4′-(2-chloro-3-fluoropyridin-4-yl)-4,4-dimethyl-2″-oxo-1″,2″-dihydrodispiro[cyclohexane-1,2′-pyrrolidine-3′,3″-indole]-5′-carboxamide]	> 10	0.342	0.0689	0.0294	8.75	> 10	> 10	7.21	> 10	> 10	> 10	7.33	> 10	7.91	0.0354	0.024	> 10	> 10	> 10	> 10	IC50 (MDA-MB-436): > 10 µM; IC50 (NCI-H460): 0.0664 µM; IC50 (NCI-H508): > 10 µM; IC50 (NCI-H661): 6.59 µM; IC50 (NCI-H747): > 10 µM; IC50 (RPMI 8226): 0.065 µM; IC50 (RPMI-7951): 8.63 µM; IC50 (SCaBER): > 10 µM; IC50 (SK-LMS-1): > 10 µM; IC50 (SK-MEL-28): > 10 µM; IC50 (SK-MEL-3): > 10 µM; IC50 (SK-N-DZ): > 10 µM; IC50 (SNB-19): > 10 µM; IC50 (SU.86.86): 8.86 µM; IC50 (SW480): > 10 µM; IC50 (SW872): > 10 µM; IC50 (SW982): 0.0209 µM; IC50 (U-87 MG): 0.0376 µM; IC50 (U2OS): 0.248 µM
